Assay results: ChEMBL document CHEMBL1157599, “Synthesis, in vitro and in vivo biological evaluation, docking studies, and structure--activity relationship (SAR) discussion of dipeptidyl boronic acid proteasome inhibitors composed of beta-amino acids” (J Med Chem, 2010)

Experiments:
[1] = Inhibition of chymotrypsin-like activity of human 20S proteosome assessed as hydrolysis of fluorogenic Suc-Leu-Leu-Val-Tyr-AMC substrate
[2] = Mean residence time in Sprague-Dawley rat at 1 mg/kg, iv; format: ADME, organism-based; design: dose 1 mg/kg, route intravenous; conditions: in vivo
Rattus norvegicus [3] = experiment: Toxicity in Sprague-Dawley rat assessed as mortality at 1 mg/kg, iv after 10 hrs; format: organism-based; design: dose 1 mg/kg, route intravenous; conditions: in vivo
[4] = Mean residence time in Sprague-Dawley rat at 1 mg/kg, ig; format: ADME, organism-based; design: dose 1 mg/kg, route intragastric; conditions: in vivo, po
[5] = Cmax in Sprague-Dawley rat at 1 mg/kg, iv; format: ADME, organism-based; design: dose 1 mg/kg, route intravenous; conditions: in vivo
SK-OV-3 = experiment: Cytotoxicity against human SKOV3 cells after 72 hrs by MTT assay; format: functional, cell-based; conditions: SK-OV-3, 72 h
NCI-H460 = experiment: Cytotoxicity against human H460 cells after 72 hrs by MTT assay; format: functional, cell-based; conditions: NCI-H460, 72 h
[6] = Terminal half life in Sprague-Dawley rat at 1 mg/kg, ig; format: ADME, organism-based; design: dose 1 mg/kg, route intragastric; conditions: in vivo, po, read-out: beta t1/2 (converted)
[7] = Volume of distribution in Sprague-Dawley rat at 1 mg/kg, iv; format: ADME, organism-based; design: dose 1 mg/kg, route intravenous; conditions: in vivo, read-out: Vz
Rattus norvegicus [8] = experiment: Volume of distribution in Sprague-Dawley rat at 1 mg/kg, ig; format: ADME, organism-based; design: dose 1 mg/kg, route intragastric; conditions: in vivo, po
A549 = experiment: Cytotoxicity against human A549 cells after 72 hrs by MTT assay; format: functional, cell-based; conditions: A549, 72 h
[9] = Tmax in Sprague-Dawley rat at 1 mg/kg, ig; format: ADME, organism-based; design: dose 1 mg/kg, route intragastric; conditions: in vivo, po
[10] = Cytotoxicity against human BCG823 cells after 72 hrs by MTT assay; format: functional, cell-based; conditions: BCG823, 72 h
[11] = Toxicity against zebrafish embryo assessed as embryo death at 10 umol after 24 hrs; design: species or system Danio rerio; conditions: in vivo
[12] = Cmax in Sprague-Dawley rat at 1 mg/kg, ig; format: ADME, organism-based; design: dose 1 mg/kg, route intragastric; conditions: in vivo, po
[13] = AUC (0 to t) in Sprague-Dawley rat at 1 mg/kg, iv; format: ADME, organism-based; design: dose 1 mg/kg, route intravenous; conditions: plasma
PC-3 = experiment: Cytotoxicity against human PC3 cells after 72 hrs by MTT assay; format: functional, cell-based; conditions: PC-3, 72 h
[14] = Systemic clearance in Sprague-Dawley rat at 1 mg/kg, ig; format: ADME, organism-based; design: dose 1 mg/kg, route intragastric; conditions: in vivo, po
[15] = Oral bioavailability in Sprague-Dawley rat; format: ADME, organism-based; conditions: in vivo
[16] = AUC (0 to t) in Sprague-Dawley rat at 1 mg/kg, ig; format: ADME, organism-based; design: dose 1 mg/kg, route intragastric; conditions: plasma, po
[17] = Systemic clearance in Sprague-Dawley rat at 1 mg/kg, iv; format: ADME, organism-based; design: dose 1 mg/kg, route intravenous; conditions: in vivo
SW480 = experiment: Cytotoxicity against human SW480 cells after 72 hrs by MTT assay; format: functional, cell-based; conditions: SW480, 72 h
[18] = Toxicity against zebrafish embryo assessed as cell death in embryo at 1 umol after 24 hrs; design: species or system Danio rerio
[19] = Tmax in Sprague-Dawley rat at 1 mg/kg, iv; format: ADME, organism-based; design: dose 1 mg/kg, route intravenous; conditions: in vivo
HL-60 = experiment: Cytotoxicity against human HL60 cells after 72 hrs by MTT assay; format: functional, cell-based; conditions: HL-60, 72 h
Rattus norvegicus [20] = experiment: Toxicity in Sprague-Dawley rat assessed as mortality at 1 mg/kg, ig after 10 hrs; format: organism-based; design: dose 1 mg/kg, route intragastric; conditions: in vivo, po
BXPC-3 = experiment: Cytotoxicity against human BxPC3 cells after 72 hrs by MTT assay; format: functional, cell-based; conditions: BXPC-3, 72 h
HepG2 = experiment: cells; conditions: Homo sapiens, HepG2, 72 h
Description: Cytotoxicity against human HepG2 cells after 72 hrs by MTT assay

U-266 = experiment: Cytotoxicity against human U266 cells after 72 hrs by MTT assay; format: functional, cell-based; conditions: U-266, 72 h
[21] = Terminal half life in Sprague-Dawley rat at 1 mg/kg, iv; format: ADME, organism-based; design: dose 1 mg/kg, route intravenous; conditions: in vivo, read-out: beta t1/2 (converted)
[22] = Toxicity against zebrafish embryo assessed as cell death in tail at 1 umol after 24 hrs; design: species or system Danio rerio
[23] = Toxicity against zebrafish embryo assessed as morphological changes at 1 umol after 24 hrs; design: species or system Danio rerio; conditions: in vivo
[24] = Toxicity against zebrafish embryo assessed as morphological changes at 10 umol after 24 hrs; design: species or system Danio rerio; conditions: in vivo
Rattus norvegicus [25] = experiment: Toxicity in Sprague-Dawley rat assessed as toxic reactions at 1 mg/kg, iv; format: organism-based; design: dose 1 mg/kg, route intravenous; conditions: in vivo
Rattus norvegicus [26] = experiment: Toxicity in Sprague-Dawley rat assessed as toxic reactions at 1 mg/kg, ig; format: organism-based; design: dose 1 mg/kg, route intragastric; conditions: in vivo, po
Rattus norvegicus [27] = experiment: Toxicity in Sprague-Dawley rat assessed as side effects at 2 mg/kg, iv; format: organism-based; design: dose 2 mg/kg, route intravenous; conditions: in vivo

## O=C(CC(NC(=O)c1cnccn1)c1ccccc1)N[C@@H](Cc1ccccc1)B(O)O (stereo not given in full)
[1]
  IC50: 664 nM

## COc1ccc(C(CC(=O)N[C@@H](CC(C)C)B(O)O)NC(=O)c2cccc3c2CCCC3)cc1 (stereo not given in full)
[1]
  IC50: 161 nM

## Cc1ccc(C(CC(=O)N[C@@H](CC(C)C)B(O)O)NC(=O)c2cccnc2)cc1 (stereo not given in full)
[1]
  IC50: 165 nM

## CC(C)C[C@H](NC(=O)CC(NC(=O)c1cnccn1)c1ccc(Cl)cc1)B(O)O (stereo not given in full)
[1]
  IC50: 121 nM

## COc1ccc(C(CC(=O)N[C@@H](CC(C)C)B(O)O)NC(=O)c2cccnc2)cc1 (stereo not given in full)
[1]
  IC50: 35 nM

## CC(C)C[C@H](NC(=O)CC(NC(=O)c1cccnc1)c1ccc(Cl)cc1)B(O)O (stereo not given in full)
[1]
  IC50: 180 nM

## CC(C)C[C@H](NC(=O)CC(NC(=O)c1cnccn1)c1ccccc1)B(O)O (stereo not given in full)
[1]
  IC50: 136 nM

## Cc1ccc(C[C@H](NC(=O)CC(NC(=O)c2cnccn2)c2ccccc2)B(O)O)cc1 (stereo not given in full)
[1]
  IC50: 497 nM

## CC(C)C[C@H](NC(=O)[C@H](Cc1ccccc1)NC(=O)c1cnccn1)B(O)O [BORTEZOMIB]
[2]
  MRT: 1.4 h
Rattus norvegicus [3]
  Activity: Toxic
[4]
  MRT: 7.69 h
[5]
  Cmax: 1080 ng/mL
SK-OV-3
  IC50: 151 nM
NCI-H460
  IC50: 780 nM
[6]
  half-life: 7.47 h
[7]
  Vd: 3.74 L/kg
Rattus norvegicus [8]
  Vz: 29.791 L/kg
A549
  IC50: 6.7 nM
[1]
  IC50: 2.48 nM
[9]
  Tmax: 0.23 h
[10]
  IC50: 3290 nM
[11]
  Activity: Toxic
[12]
  Cmax: 161 ng/mL
[13]
  AUC(0-t): 654 ng·h/mL
PC-3
  IC50: 7 nM
[14]
  CL/F: 44.7 mL/min/kg
[15]
  bioavailability: 46%
[16]
  AUC(0-t): 303 ng·h/mL
[17]
  clearance: 23.9 mL/min/kg
SW480
  IC50: 6.1 nM
[18]
  Activity: 52.4%
[19]
  Tmax: 1.8 min
HL-60
  IC50: 7.1 nM
Rattus norvegicus [20]
  Activity: Toxic
BXPC-3
  IC50: 16.2 nM
HepG2
  IC50: 7.5 nM
U-266
  IC50: 8.8 nM
[21]
  half-life: 2 h
[22]
  Activity: 28.5%

## CC(C)C[C@H](NC(=O)CC(NC(=O)c1ccccc1)c1ccc(Cl)cc1)B(O)O (stereo not given in full)
[1]
  IC50: 30 nM

## COc1ccc([C@H](CC(=O)N[C@@H](CC(C)C)B(O)O)NC(=O)c2ccccc2)cc1
SK-OV-3
  IC50: 14500 nM
NCI-H460
  IC50: 25200 nM
A549
  IC50: 3680 nM
[1]
  IC50: 350 nM
[10]
  IC50: 76900 nM
PC-3
  IC50: 1110 nM
[23]
  Activity: Non-toxic
SW480
  IC50: 1720 nM
HL-60
  IC50: 700 nM
BXPC-3
  IC50: 2820 nM
HepG2
  IC50: 5130 nM
U-266
  IC50: 1280 nM
[24]
  Activity: Non-toxic

## Cc1ccc(C(CC(=O)N[C@@H](CC(C)C)B(O)O)NC(=O)c2ccccc2)cc1 (stereo not given in full)
[1]
  IC50: 14 nM

## CC(C)C[C@H](NC(=O)CC(NC(=O)c1cccnc1)c1ccccc1)B(O)O (stereo not given in full)
[1]
  IC50: 382 nM

## COc1ccc([C@@H](CC(=O)N[C@@H](CC(C)C)B(O)O)NC(=O)c2ccccc2)cc1
[2]
  MRT: 2.8 h
[5]
  Cmax: 2930 ng/mL
SK-OV-3
  IC50: 3490 nM
NCI-H460
  IC50: 14600 nM
[7]
  Vd: 8.45 L/kg
A549
  IC50: 830 nM
Rattus norvegicus [25]
  Activity: Non-toxic
[1]
  IC50: 9.6 nM
[10]
  IC50: 74400 nM
[13]
  AUC(0-t): 933 ng·h/mL
PC-3
  IC50: 230 nM
Rattus norvegicus [26]
  Activity: Non-toxic
[17]
  clearance: 18.8 mL/min/kg
Rattus norvegicus [27]
  Activity: Non-toxic
SW480
  IC50: 410 nM
[19]
  Tmax: 1.8 min
HL-60
  IC50: 140 nM
BXPC-3
  IC50: 380 nM
HepG2
  IC50: 1880 nM
U-266
  IC50: 350 nM
[21]
  half-life: 5.3 h

## Cc1ccc(C(CC(=O)N[C@@H](CC(C)C)B(O)O)NC(=O)c2cnccn2)cc1 (stereo not given in full)
[1]
  IC50: 69.8 nM

## COc1ccc(C(CC(=O)N[C@@H](CC(C)C)B(O)O)NC(=O)c2ccccc2)cc1 (stereo not given in full)
SK-OV-3
  IC50: 8430 nM
NCI-H460
  IC50: 36000 nM
A549
  IC50: 3450 nM
[1]
  IC50: 12.5 nM
[10]
  IC50: 30900 nM
PC-3
  IC50: 830 nM
SW480
  IC50: 1080 nM
HL-60
  IC50: 1020 nM
BXPC-3
  IC50: 1500 nM
HepG2
  IC50: 5590 nM
U-266
  IC50: 2650 nM

## COc1ccc(C(CC(=O)N[C@@H](CC(C)C)B(O)O)NC(=O)c2cnccn2)cc1 (stereo not given in full)
[1]
  IC50: 134 nM

## CC(C)C[C@H](NC(=O)CC(NC(=O)c1ccccc1)c1ccccc1)B(O)O (stereo not given in full)
[1]
  IC50: 40 nM
